Experimental data reported in ChEMBL document CHEMBL3885861, “Open TG-GATES”.

Species: Rattus norvegicus
Assay: Open TG-GATES - Regimen: Daily Repeat
Format: toxicity, organism-based, Sprague-Dawley
Design: regimen Daily Repeat, gender Male, age 6 weeks
Conditions: in vivo, po, 0 mg/kg, route gavage, dose level Control; for APTT / Bas / Eos / Fbg / Hb / Ht / Lym / MCH / MCHC / MCV / Mono / Neu / PT / Plat / RBC / Ret / WBC: tissue Blood
[1] = 72 h, tissue Plasma, time 3 day

SMILES: CN(CCOc1ccc(CC2SC(=O)NC2=O)cc1)c1ccccn1.O=C(O)/C=C\C(=O)O (configuration not stated) [ROSIGLITAZONE MALEATE]
- TERMINAL_BW (72 h, time 3 day): 242.8 g
- APTT (72 h, time 3 day): 15.5 s
- Bas (72 h, time 3 day): 0%
- Eos (72 h, time 3 day): 1.2%
- Fbg (72 h, time 3 day): 236.8 mg/dL
- Hb (72 h, time 3 day): 13 g/dL
- Ht (72 h, time 3 day): 39.2%
- Lym (72 h, time 3 day): 76.6%
- MCH (72 h, time 3 day): 21.1 pg
- MCHC (72 h, time 3 day): 33%
- MCV (72 h, time 3 day): 63.9 fL
- Mono (72 h, time 3 day): 5.2%
- Neu (72 h, time 3 day): 17.4%
- PT (72 h, time 3 day): 11.5 s
- Plat (72 h, time 3 day): 136 x10_4/uL
- RBC (72 h, time 3 day): 615.6 x10_4/ul
- Ret (72 h, time 3 day): 6.6%
- WBC (72 h, time 3 day): 98 x10_2/uL
- KIDNEY_TOTAL (72 h, tissue Kidney, time 3 day): 0.8 g
- LIVER (72 h, tissue Liver, time 3 day): 12.6 g
- A/G [1]: 2.2
- ALP [1]: 1243.6 IU/L
- ALT [1]: 35.6 IU/L
- AST [1]: 62.6 IU/L
- BUN [1]: 14.8 mg/dL
- CRE [1]: 0.2 mg/dL
- Ca [1]: 11.7 mg/dL
- Cl [1]: 104.2 meq/L
- DBIL [1]: 0.014 mg/dL
- GLC [1]: 197.6 mg/dL
- IP [1]: 6.9 mg/dL
- K [1]: 4.7 meq/L
- LDH [1]: 96.2 IU/L
- Na [1]: 140.4 meq/L
- PL [1]: 154.8 mg/dL
- RALB [1]: 3.9 g/dL
- TBIL [1]: 0.04 mg/dL
- TC [1]: 83.4 mg/dL
- TG [1]: 105.8 mg/dL
- TP [1]: 5.8 g/dL
- gamma-GTP [1]: 0.2 IU/L
- TERMINAL_BW ([…], time 7 day): 274.1 g
- TERMINAL_BW ([…], time 14 day): 332.1 g
- TERMINAL_BW ([…], time 28 day): 412.9 g
- APTT ([…], time 7 day): 16.1 s
- Bas ([…], time 7 day): 0%
- Eos ([…], time 7 day): 1%
- Fbg ([…], time 7 day): 242.4 mg/dL
- Hb ([…], time 7 day): 13.4 g/dL
- Ht ([…], time 7 day): 40.5%
- Lym ([…], time 7 day): 82%
- MCH ([…], time 7 day): 20.8 pg
- MCHC ([…], time 7 day): 33%
- MCV ([…], time 7 day): 63 fL
- Mono ([…], time 7 day): 4.4%
- Neu ([…], time 7 day): 12.8%
- PT ([…], time 7 day): 11.7 s
- Plat ([…], time 7 day): 134.6 x10_4/uL
- RBC ([…], time 7 day): 643.8 x10_4/ul
- Ret ([…], time 7 day): 4.6%
- WBC ([…], time 7 day): 98.6 x10_2/uL
- APTT ([…], time 14 day): 15.7 s
- Bas ([…], time 14 day): 0%
- Eos ([…], time 14 day): 1%
- Fbg ([…], time 14 day): 247.4 mg/dL
- Hb ([…], time 14 day): 14 g/dL
- Ht ([…], time 14 day): 42.3%
- Lym ([…], time 14 day): 74.4%
- MCH ([…], time 14 day): 20.6 pg
- MCHC ([…], time 14 day): 33%
- MCV ([…], time 14 day): 62.2 fL
- Mono ([…], time 14 day): 6%
- Neu ([…], time 14 day): 18.6%
- PT ([…], time 14 day): 11.5 s
- Plat ([…], time 14 day): 126.2 x10_4/uL
- RBC ([…], time 14 day): 680.2 x10_4/ul
- Ret ([…], time 14 day): 3.6%
- WBC ([…], time 14 day): 124.2 x10_2/uL
- APTT ([…], time 28 day): 16 s
- Bas ([…], time 28 day): 0%
- Eos ([…], time 28 day): 1%
- Fbg ([…], time 28 day): 242.4 mg/dL
